ChEMBL document CHEMBL4825691, “Antimicrobial, modulatory, and antibiofilm activity of tt-farnesol on bacterial and fungal strains of importance to human health” (2021)
In brackets after ≈: the same amount, converted by molar mass.

Experiments:
Type in all cases: functional
Staphylococcus aureus [1] = experiment: Antibacterial activity against Staphylococcus aureus ATCC 43300 assessed as inhibition of bacterial growth incubated for 24 hrs by microdilution assay
Staphylococcus aureus [2] = experiment: Antibacterial activity against Staphylococcus aureus MED 55 assessed as inhibition of bacterial growth incubated for 24 hrs by microdilution assay
Enterococcus faecalis [3] = experiment: Antibacterial activity against Enterococcus faecalis ATCC 6569 assessed as inhibition of bacterial growth incubated for 24 hrs by microdilution assay
Enterococcus durans [4] = experiment: Antibacterial activity against Enterococcus durans BIO 0114 assessed as inhibition of bacterial growth incubated for 24 hrs by microdilution assay
Streptococcus agalactiae [5] = experiment: Antibacterial activity against Streptococcus agalactiae ATCC 13813 assessed as inhibition of bacterial growth incubated for 24 hrs by microdilution assay
Streptococcus sobrinus [6] = experiment: Antibacterial activity against Streptococcus sobrinus ATCC 27351 assessed as inhibition of bacterial growth incubated for 24 hrs by microdilution assay
[7] = test system: Stenotrophomonas maltophilia; experiment: Antibacterial activity against Stenotrophomonas maltophilia EM 0104assessed as inhibition of bacterial growth incubated for 24 hrs by microdilution assay
Proteus mirabilis = experiment: Antibacterial activity against Proteus mirabilis ATCC 25933 assessed as inhibition of bacterial growth incubated for 24 hrs by microdilution assay
Escherichia coli [8] = experiment: Antibacterial activity against Escherichia coli ATCC 35218 assessed as inhibition of bacterial growth incubated for 24 hrs by microdilution assay
Escherichia coli [9] = experiment: Antibacterial activity against Escherichia coli EOL 931 assessed as inhibition of bacterial growth incubated for 24 hrs by microdilution assay
Escherichia coli [10] = experiment: Antibacterial activity against Escherichia coli ETEC 2589093 assessed as inhibition of bacterial growth incubated for 24 hrs by microdilution assay
Escherichia coli [11] = experiment: Antibacterial activity against Escherichia coli EAEC I 4913 assessed as inhibition of bacterial growth incubated for 24 hrs by microdilution assay
Escherichia coli [12] = experiment: Antibacterial activity against Escherichia coli EIEC E20851 assessed as inhibition of bacterial growth incubated for 24 hrs by microdilution assay
[13] = test system: Staphylococcus epidermidis; experiment: Bactericidal activity against Staphylococcus epidermidis ATCC 12228 assessed as bacterial killing incubated for 24 hrs by microdilution assay
Streptococcus agalactiae [14] = experiment: Bactericidal activity against Streptococcus agalactiae ATCC 13813 assessed as bacterial killing incubated for 24 hrs by microdilution assay
Streptococcus pyogenes [15] = experiment: Bactericidal activity against Streptococcus pyogenes ATCC 19615 assessed as bacterial killing incubated for 24 hrs by microdilution assay
Streptococcus mutans [16] = experiment: Bactericidal activity against Streptococcus mutans ATCC 25175 assessed as bacterial killing incubated for 24 hrs by microdilution assay
Streptococcus sobrinus [17] = experiment: Bactericidal activity against Streptococcus sobrinus ATCC 27351 assessed as bacterial killing incubated for 24 hrs by microdilution assay
Staphylococcus aureus [18] = experiment: Ratio of MBC to MIC against Staphylococcus aureus ATCC 43300
Staphylococcus aureus [19] = experiment: Ratio of MBC to MIC against Staphylococcus aureus MED 55
Enterococcus durans [20] = experiment: Ratio of MBC to MIC against Enterococcus durans BIO 0114
Streptococcus sobrinus [21] = experiment: Ratio of MBC to MIC against Streptococcus sobrinus ATCC 27351
Staphylococcus aureus [22] = experiment: Antimicrobial activity against Staphylococcus aureus ATCC 29213 assessed assessed as reduction in bacterial growth at 1/4 times of drug MIC in the presence of vancomycin by microdilution method
[23] = test system: Staphylococcus epidermidis; experiment: Antimicrobial activity against Staphylococcus epidermidis ATCC 12228 assessed assessed as reduction in bacterial growth at 1/4 times of drug MIC in the presence of Oxacillin by microdilution method
[24] = test system: Staphylococcus epidermidis; experiment: Antimicrobial activity against Staphylococcus epidermidis 70 D assessed assessed as reduction in bacterial growth at 1/4 times of drug MIC in the presence of vancomycin by microdilution method
Enterococcus faecalis [25] = experiment: Antimicrobial activity against Enterococcus faecalis ATCC 51299 assessed assessed as reduction in bacterial growth at 1/4 times of drug MIC in the presence of Teicoplanin by microdilution method
Streptococcus pyogenes [26] = experiment: Antimicrobial activity against Streptococcus pyogenes ATCC 19615 assessed assessed as reduction in bacterial growth at 1/4 times of drug MIC in the presence of Ampicillin by microdilution method
Streptococcus mutans [27] = experiment: Antimicrobial activity against Streptococcus mutans ATCC 25175 assessed assessed as reduction in bacterial growth at 1/4 times of drug MIC in the presence of Ampicillin by microdilution method
Staphylococcus aureus [28] = experiment: Antimicrobial activity against Staphylococcus aureus ATCC 29213 assessed assessed as reduction in bacterial growth at 1/8 times of drug MIC in the presence of vancomycin by microdilution method
Staphylococcus aureus [29] = experiment: Antimicrobial activity against Staphylococcus aureus MED 55 assessed assessed as reduction in bacterial growth at 1/8 times of drug MIC in the presence of vancomycin by microdilution method
Streptococcus pyogenes [30] = experiment: Antimicrobial activity against Streptococcus pyogenes ATCC 19615 assessed assessed as reduction in bacterial growth at 1/8 times of drug MIC in the presence of Ampicillin by microdilution method
Streptococcus mutans [31] = experiment: Antimicrobial activity against Streptococcus mutans ATCC 25175 assessed assessed as reduction in bacterial growth at 1/8 times of drug MIC in the presence of Ampicillin by microdilution method
Streptococcus sobrinus [32] = experiment: Antimicrobial activity against Streptococcus sobrinus ATCC 27351 assessed assessed as reduction in bacterial growth at 1/8 times of drug MIC in the presence of Ampicillin by microdilution method
Staphylococcus aureus [33] = experiment: Antimicrobial activity against Staphylococcus aureus ATCC […] assessed assessed as reduction in bacterial growth at 1/2 times of drug MIC in the presence of Oxacillin by microdilution method
Staphylococcus aureus [34] = experiment: Antimicrobial activity against Staphylococcus aureus MED 55 assessed assessed as reduction in bacterial growth at 1/2 times of drug MIC in the presence of Oxacillin by microdilution method
Staphylococcus aureus [35] = experiment: Antibiofilm activity against drug-resistant Staphylococcus aureus ATCC 43300 assessed as inhibition of biofilm formation incubated for 24 hrs by crystal violet staining based microtiter plate method
Enterococcus faecalis [36] = experiment: Antibiofilm activity against drug-resistant Enterococcus faecalis ATCC 51299 assessed as inhibition of biofilm formation incubated for 24 hrs by crystal violet staining based microtiter plate method
Enterococcus durans [37] = experiment: Antibiofilm activity against drug-resistant Enterococcus durans BIO01 assessed as inhibition of biofilm formation incubated for 24 hrs by crystal violet staining based microtiter plate method
Streptococcus agalactiae [38] = experiment: Antibiofilm activity against drug-resistant Streptococcus agalactiae ATCC 13813 assessed as inhibition of biofilm formation incubated for 24 hrs by crystal violet staining based microtiter plate method
Streptococcus mutans [39] = experiment: Antibiofilm activity against drug-resistant Streptococcus mutans ATCC 25175 assessed as inhibition of biofilm formation incubated for 24 hrs by crystal violet staining based microtiter plate method

Structure (SMILES): CC(C)=CCC/C(C)=C/CC/C(C)=C/CO [FARNESOL]
- MIC (Staphylococcus aureus [1]): 128 µg/mL (≈ 576 µM)
- MIC (Staphylococcus aureus [2]): 64 µg/mL (≈ 288 µM)
- MIC (Enterococcus faecalis [3]): > 1020 µg/mL
- MIC (Enterococcus durans [4]): 64 µg/mL (≈ 288 µM)
- MIC (Streptococcus agalactiae [5]): 16 µg/mL (≈ 72 µM)
- MIC (Streptococcus sobrinus [6]): 8 µg/mL (≈ 36 µM)
- MIC [7]: > 1020 µg/mL
- MIC (Proteus mirabilis): > 1020 µg/mL
- MIC (Escherichia coli [8]): > 1020 µg/mL
- MIC (Escherichia coli [9]): > 1020 µg/mL
- MIC (Escherichia coli [10]): > 1020 µg/mL
- MIC (Escherichia coli [11]): > 1020 µg/mL
- MIC (Escherichia coli [12]): > 1020 µg/mL
- MBC [13]: > 128 µg/mL
- MBC (Streptococcus agalactiae [14]): 32 µg/mL (≈ 144 µM)
- MBC (Streptococcus pyogenes [15]): 64 µg/mL (≈ 288 µM)
- MBC (Streptococcus mutans [16]): > 512 µg/mL
- MBC (Streptococcus sobrinus [17]): 16 µg/mL (≈ 72 µM)
- Ratio (Staphylococcus aureus [18]): >4
- Ratio (Staphylococcus aureus [19]): 2
- Ratio (Enterococcus durans [20]): >4
- Ratio (Streptococcus sobrinus [21]): 2
- MIC (Staphylococcus aureus [22]): 2 µg/mL
- MIC [23]: 0.25 µg/mL
- MIC [24]: 2 µg/mL
- MIC (Enterococcus faecalis [25]): 1 µg/mL
- MIC (Streptococcus pyogenes [26]): 0.063 µg/mL
- MIC (Streptococcus mutans [27]): 0.5 µg/mL
- MIC (Staphylococcus aureus [28]): 2 µg/mL
- MIC (Staphylococcus aureus [29]): 2 µg/mL
- MIC (Streptococcus pyogenes [30]): 0.063 µg/mL
- MIC (Streptococcus mutans [31]): 0.5 µg/mL
- MIC (Streptococcus sobrinus [32]): 0.125 µg/mL
- MIC (Staphylococcus aureus [33]): 1 µg/mL
- MIC (Staphylococcus aureus [34]): 128 µg/mL
- MIC (Staphylococcus aureus [35]): 32 µg/mL (≈ 144 µM)
- MIC (Enterococcus faecalis [36]): 128 µg/mL (≈ 576 µM)
- MIC (Enterococcus durans [37]): 64 µg/mL (≈ 288 µM)
- MIC (Streptococcus agalactiae [38]): 4 µg/mL (≈ 18 µM)
- MIC (Streptococcus mutans [39]): 128 µg/mL (≈ 576 µM)
